“And” between values parts separate entries of the source, which are not always exact repeats. Identical values can stand only once. Like-named read-outs stand apart in the source and are kept apart here. Each block holds one compound with its values, some of them ahead of it.
Tests used:
EZH2 = test system: EZH2; design: method as in PMID 23023262; conditions: EZH2 over EZH1 ref 52; cited from earlier work
SIRT7 [1] = target: T1, SIRT7 (Homo sapiens, UniProt Q9NRC8); assay: Surface plasmon resonance (SPR) binding assay
T1 construct: His-tagged full length SIRT7 protein expression from BL21 bacterial cells; His; made in house; host or cells: E. coli BL21
T1 sequence (Q9NRC8 1-400): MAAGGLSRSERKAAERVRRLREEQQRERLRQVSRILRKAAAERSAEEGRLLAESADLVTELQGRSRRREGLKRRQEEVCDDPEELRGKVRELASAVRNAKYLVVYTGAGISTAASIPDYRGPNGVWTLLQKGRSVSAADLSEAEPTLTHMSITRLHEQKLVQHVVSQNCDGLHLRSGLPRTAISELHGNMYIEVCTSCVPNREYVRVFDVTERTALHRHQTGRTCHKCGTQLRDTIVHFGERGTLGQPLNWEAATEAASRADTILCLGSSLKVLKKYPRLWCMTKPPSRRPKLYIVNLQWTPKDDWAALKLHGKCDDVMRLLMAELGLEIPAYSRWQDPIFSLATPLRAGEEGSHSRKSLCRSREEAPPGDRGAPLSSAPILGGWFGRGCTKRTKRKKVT
Description: All SPR measurements were performed on Biacore T200 instrument (GE Healthcare) with running buffer (PBS+5% DMSO) at room temperature. The bacterially purified His-SIRT7 was covalently immobilized onto Series S Sensor Chip CM5 by a standard amino-coupling procedure in 10 mM sodium acetate (pH 5.5). Two-fold serial dilutions of YZL-51N or NAD^+ in 5% DMSO passed through the sensor chip at 30 μL/min for 120 s, followed by 240 s of dissociation flow. The KD value was calculated based on the concentration dependence of the observed steady-state response using Biacore T200 Evaluation software Version 1.0 (GE Healthcare).

SIRT7 [2] = target: T1, SIRT7; assay: Fluor de Lys (FDL) SIRT7 deacetylase assay; type: biochemical; conditions: for IC50: 0.5 mM NAD+, read-out: FDL assay SIRT7 inhibition IC50; for inhibition at 50 µM: 50 μM compound, 37°C, 90 min; for Dose-dependent inhibition of SIRT7: FDL assay, Figure S5
Description: To assess SIRT7 deacetylase activity using Fluor de Lys (FDL) assays, the peptide […]∗QLAGGK was synthesized and characterized as a substrate using fluorophore 7-methoxycoumarin-4-acetic acid (∗, MCA) (Figures 1A, S1A, and S1B). In the presence of both SIRT7 and NAD^+, a luminescence response was detected in the linear range (y = 31.88x + 2396, R^2 = 0.9742) (Figure 1B). We screened our preserved library of 242 natural products to find potential SIRT7 inhibitors.
For in vitro analysis of SIRT7 deacetylation, the reaction system contained 10 μg His-SIRT7, 0.5 mM NAD^+, 10 μM […](MCA)QLAGGK (synthesized by QYAOBIO; details in the supplementary files), 50 μM potential compound or 3 mM NAM, and assay buffer (10 mM Tris-HCl pH 8.0, 4 mM MgCl2, 0.2 mM DTT and 10% Glycerol). The deacetylation reactions were incubated at 37°C for 90 min. The fluorescence intensity was measured with a microplate reader (Synergy H4 Hybrid Reader, Biotek) at an excitation wavelength of 260 nm and detected at an emission spectrum of 300–600 nm. The IC50 values were calculated at 450 nm emission by GraphPad Prism 8.

SIRT7 [3] = target: T1, SIRT7; assay: Fluor de Lys (FDL) SIRT7 deacetylase assay; type: biochemical; conditions: 2 mM NAM treatment
SIRT7 [4] = target: T1, SIRT7; assay: Dot blot assay of SIRT7-mediated H3K18ac peptide deacetylation; type: biochemical; conditions: for Rescue of H3K18 acetylation: dot blot screening, 50 μM; for EC50: read-out: Dot blot assay H3K18ac rescue EC50
Description: To avoid the bias of the fluorescence assay, we also performed dot blot assays for the effects of natural compounds on SIRT7-mediated deacetylation of H3K18ac peptides in vitro (Figures S2A and S2B). In this system, SIRT7 mediated a dose-dependent deacetylation of H3K18ac (Figure 1D). […] Based on comparisons of all the candidates, we selected YZL-51N as the best for further investigation (Figure 1F). […] Thus, P. americana derived YZL-51N was confirmed as an identified SIRT7 inhibitor using parallel peptide-based screening platforms.
For dot blot assays, the reaction system containing 10 μg His-SIRT7, 0.5 mM NAD^+, 10 μM biotin-H3K18ac peptides and 50 μM potential compound was mixed and incubated at 37°C for 90 min. Samples were transferred to a polyvinylidene difluoride (PVDF) membrane, and then blocked with 5% skimmed milk. The blots were probed with H3K18ac primary antibody at RT for 2 h and then incubated with secondary antibody at RT for 1h. The bands were visualized using ECL substrates (Thermo Fisher, USA) on Tanon 5200SF Imaging System.

Description for HCT116 cells: Cells were seeded into 96 well plates (4,000 cells/well). […] The cells were then washed and re-cultured in fresh medium for 48 h. […] Formazan were generated by the addition of 100 μL DMSO and shaking for 30 min. The absorbance of samples was measured at 570 nm using a microtiter plate reader (BioTek).

- Weaker affinity to SIRT7 than YZL-51N (SIRT7 [1]): 200 fold
- Kd (SIRT7 [1]; immobilized His-SIRT7): > 200 µM
Structure (SMILES): NC(=O)c1ccc[n+]([C@@H]2O[C@H](COP(=O)([O-])OP(=O)(O)OC[C@H]3O[C@@H](n4cnc5c(N)ncnc54)[C@H](O)[C@@H]3O)[C@@H](O)[C@H]2O)c1 [NAD^+]

- inhibition at 50 µM (SIRT7 [2]): 47.5%
- Dose-dependent inhibition of SIRT7 (SIRT7 [2]): did not show a dose-dependent inhibition
Structure (SMILES): COc1ccc(C(C)=O)cc1OC [compound 1]

- inhibition at 50 µM (SIRT7 [2]): 12.3%
- Rescue of H3K18 acetylation (SIRT7 [4]): rescued H3K18 acetylation
- EC50 (SIRT7 [4]): 70.2 µM
Structure (SMILES): COC(=O)/C(=C\C(=O)c1ccc(OC)c(OC)c1)c1ccc(OC)c(OC)c1 [compound 6]

The next lines start with the compound.

Structure (SMILES): Cc1cc(C)c(CNC(=O)c2cc(-c3ccc(CN4CCOCC4)cc3)cc3c2cnn3C2CCCC2)c(=O)[nH]1 [EPZ005687]
- Selectivity against EZH1 (EZH2): 50 fold

Structure (SMILES): NC(=O)c1cccnc1 [NAM, nicotinamide, reference compound]
- IC50 (SIRT7 [2]; 0-30 mM NAM): 2290 µM and ~2290 µM
- inhibition at 2000 µM (SIRT7 [3]): 44.4%

Structure (SMILES): O=C(O)/C(=C\C(=O)c1ccc(O)c(O)c1)c1ccc(O)c(O)c1 [compound 7]
- inhibition at 50 µM (SIRT7 [2]): 52.7%
- IC50 (SIRT7 [2]; 10 μM peptide): > 30 µM
- Dose-dependent inhibition of SIRT7 (SIRT7 [2]): did not show a dose-dependent inhibition
- Rescue of H3K18 acetylation (SIRT7 [4]): rescued H3K18 acetylation
- EC50 (SIRT7 [4]): 32 µM

Structure (SMILES): COc1cc([C@@H]2c3cc4c(cc3[C@@H](O[C@@H]3O[C@@H]5CO[C@@H](C)O[C@H]5[C@H](O)[C@H]3O)[C@H]3COC(=O)[C@H]23)OCO4)cc(OC)c1O [etoposide, reference compound]
- Cell proliferation (%, Mean ± SD) (HCT116 cells; single agent 5 μM): 92.7 ± 4.1%
- Cell proliferation (%, Mean ± SD) (HCT116 cells; single agent 10 μM): 82.5 ± 6.0%
- Cell proliferation (%, Mean ± SD) (HCT116 cells; single agent 20 μM): 73.5 ± 6.0%
- Cell proliferation (%, Mean ± SD) (HCT116 cells; single agent 40 μM): 48.5 ± 2.4%
- Cell proliferation (%, Mean ± SD) (HCT116 cells; single agent 80 μM): 27.0 ± 1.9%

From PMC11214487, “YZL-51N functions as a selective inhibitor of SIRT7 by NAD^+ competition to impede DNA damage repair” (iScience, 2024)
